Test results reported in ChEMBL document CHEMBL1151065, “Antiproliferative activity of haloosmocenium ions against human and murine cancer cell lines” (Bioorg Med Chem Lett, 1994).

Experiments:
COLO 320 = experiment: Antiproliferative effect against human COLO 320 colon adenocarcinoma cells; type: functional, cell-based
HL-60 = experiment: Antiproliferative effect against human HL60 promyelocytic leukemia cells; type: functional, cell-based
U-937 [1] = experiment: Antiproliferative effect against human U937 histiocytic lymphoma cells; type: functional, cell-based
NIH3T3 = experiment: Antiproliferative effect against mouse NIH3T3 embryonic cells; type: functional, cell-based
Daudi = experiment: Antiproliferative effect against human Daudi Burkitt lymphoma cells; type: functional, cell-based
CCRF S-180 = experiment: Antiproliferative effect against mouse S180 sarcoma cells; type: functional, cell-based
LX-830 cell line [2] = experiment: Antiproliferative effect against mouse LX830 lymphoma cells; type: functional, cell-based
U-937 [3] = experiment: Rate of oxygen consumption of human U937 cells (10e7 cells) at 10 uM concentration was determined at 30degreeC, with control value 14.5; type: functional, cell-based
[4] = Redox potential from cyclic voltammogram; type: physicochemical
LX-830 cell line [5] = experiment: Antiproliferative effect against mouse LX830 lymphoma cells; inactive; type: functional, cell-based
[6] = Rate of oxidation by the compound at 0.44 mM versus 0.49 mM of reduced cytochrome was determined at 30 degree C
[7] = Rate of oxidation by the compound at 0.5 mM versus 0.24 mM of NADH was determined
U-937 [8] = experiment: Rate of oxygen consumption of human U937 cells (10e7 cells) at 200 uM concentration was determined at 30 degree C; type: functional, cell-based

Substance | IC50 (COLO 320) | IC50 (HL-60) | IC50 (U-937 [1]) | IC50 (NIH3T3) | IC50 (Daudi) | IC50 (CCRF S-180) | IC50 (LX-830 cell line [2]) | Oxygen consumption rate (U-937 [3]) | E0 [4] | IC50 (LX-830 cell line [5]) | Oxidation rate [6] | Oxidation rate [7] | Oxygen consumption rate (U-937 [8])
CISPLATIN [listing 1 of 2 here] | 6.6 µM | 4.3 µM | 5.2 µM | 0.3 µM | 1.7 µM | 0.8 µM | 13.2 µM | – | – | – | – | – | –
CISPLATIN [listing 2 of 2 here] | – | – | – | – | – | – | – | 13.4 nM/min | – | – | – | – | –
osmium(2+) ion bis(cyclopenta-1,3-diene) hexafluoro-phosphanuide iodide [listing 1 of 2 here] | > 200 µM | 75 µM | 196 µM | 87 µM | 79 µM | 120 µM | – | – | 0.46 | Not Active | – | – | –
osmium(2+) ion bis(cyclopenta-1,3-diene) hexafluoro-phosphanuide iodide [listing 2 of 2 here] | – | – | – | – | – | – | – | – | – | – | 824 nM/min | 8 µM/min | 10.5 nM/min
